Data reported in patent US20030055072A1, “Methods of inhibiting Pin1-associated states using a fredericamycin a compound” (priority 2000, published 2003).
Like-named read-outs stand apart in the source and are kept apart here.

Legend:
DU-145 prostate tumor = assay: tumor growth in scid mouse human prostate tumor model; assay type: in vivo, scid mice
hCyp18 = target: T1, hCyp18 (Homo sapiens, UniProt P62937); assay: protease-coupled PPIase assay, hCyp18; assay type: biochemical
T1 construct: purchased Sigma
T1 sequence (P62937 whole entry): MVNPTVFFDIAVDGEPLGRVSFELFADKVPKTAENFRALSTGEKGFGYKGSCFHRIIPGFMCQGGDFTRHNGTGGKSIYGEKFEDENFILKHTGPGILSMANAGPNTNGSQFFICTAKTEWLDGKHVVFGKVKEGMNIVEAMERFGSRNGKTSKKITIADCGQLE
Protocol: (§1) PPIase activity measurements were performed by the protease-coupled PPIase assay developed by Fischer et al. (1984). For hPin1 activity measurements, bovine trypsin (final concentration 0.21 mg/mL, Sigma) was used as an isomer-specific protease and Ac-Ala-Ala-Ser(P)-Pro-Arg-pNA (Jerini, Germany) as a substrate. PPIase activity of hFKBP12 (Sigma) and hCyp18 (Sigma) was determined with the peptide substrate Suc-Ala-Phe-Pro-Phe-pNA (Bachem) and the protease α-chymotrypsin (final concentration 0.41 mg/mL, Sigma). The test was performed by observing the released 4-nitroanilide at 390 nm with a Hewlett-Packard 8453 UV-vis spectrophotometer at 10° C. The total reaction volume was adjusted to 1.23 mL by mixing appropriate volumes of 35 mM HEPES (pH 7.8) with enzyme and effector solutions. […] The pseudo-first-order rate constant kobs for cis/trans isomerization in the presence of PPlase and the first-order rate constant k0 of the unkatalyzed cis/trans isomerization were calculated using the Kinetics Software of Hewlett-Packard as well as SigmaPlot2000 for Windows 6.0 (SPSS). The Ki value for inhibition of hPin1 PPIase activity by fredericamycin A at constant concentrations of substrate ([S0]<<KM) was calculated by fitting the data according to the equation for a competitive “tight-binding” inhibitor using SigmaPlot2000.

hPin1 = hPin1 (Homo sapiens, UniProt Q13526); assay: protease-coupled PPIase assay, hPin1; assay type: biochemical
Chain of hPin1 (Q13526 whole entry): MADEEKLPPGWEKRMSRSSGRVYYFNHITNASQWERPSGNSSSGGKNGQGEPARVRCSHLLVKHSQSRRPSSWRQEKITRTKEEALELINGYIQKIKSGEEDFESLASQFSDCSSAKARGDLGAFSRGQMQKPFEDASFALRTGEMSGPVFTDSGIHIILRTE
Protocol: PPIase activity measurements were performed by the protease-coupled PPIase assay developed by Fischer et al. (1984). For hPin1 activity measurements, bovine trypsin (final concentration 0.21 mg/mL, Sigma) was used as an isomer-specific protease and Ac-Ala-Ala-Ser(P)-Pro-Arg-pNA (Jerini, Germany) as a substrate. PPIase activity of hFKBP12 (Sigma) and hCyp18 (Sigma) was determined with the peptide substrate Suc-Ala-Phe-Pro-Phe-pNA (Bachem) and the protease α-chymotrypsin (final concentration 0.41 mg/mL, Sigma). The test was performed by observing the released 4-nitroanilide at 390 nm with a Hewlett-Packard 8453 UV-vis spectrophotometer at 10° C. The total reaction volume was adjusted to 1.23 mL by mixing appropriate volumes of 35 mM HEPES (pH 7.8) with enzyme and effector solutions. Fredericamycin A (BioLeads, Germany) was freshly diluted from a 1 mg/mL stock solution in DMSO. If not otherwise indicated, fredericamycin A (0-6 μM) was pre-incubated with the enzyme for 5 min (10° C.). Prior to the start of reaction by addition of the respective protease, 2 μL of the peptide substrate stock solution (10 mg/mL in DMSO) were added. The amount of organic solvent was kept constant within each experiment (<0.1%). The pseudo-first-order rate constant kobs for cis/trans isomerization in the presence of PPlase and the first-order rate constant k0 of the unkatalyzed cis/trans isomerization were calculated using the Kinetics Software of Hewlett-Packard as well as SigmaPlot2000 for Windows 6.0 (SPSS). The Ki value for inhibition of hPin1 PPIase activity by fredericamycin A at constant concentrations of substrate ([S0]<<KM) was calculated by fitting the data according to the equation for a competitive “tight-binding” inhibitor using SigmaPlot2000.
FIG. 1: Ki value for hPin1 PPlase activity inhibition by fredericamycin A. PPIase activity measurements were performed as described in Materials and Methods. 6.0 nM of Pin1 were pre-incubated with 0-4.8 μM fredericamycin A in 35 mM HEPES (pH 7.8) at […] for 5 min. Ac-Ala-Ala-Ser(P)-Pro-Arg-pNA (21.9 μM) was used as a substrate. Reactions were started by addition of trypsin.
FIG. 2: Time dependency of Pin1 PPIase activity inhibition by fredericamycin A. PPIase activity measurements were performed as described in Materials and Methods. 6.0 nM hPin1 was incubated for 0, 5, 10, 15, 20, 25 and 30 min with 0 (●) and 1 μM (♦) fredericamycin, respectively.
FIG. 3: Reversibility of the interaction between hPin1 and fredericamycin A. 209 nM of hPin1 were incubated with 0 (▪) and 0.16 (□) […] fredericamycin A and the remaining PPIase activity of hPin1 was measured before and after micro-separation through a semipermeable membrane using the protease-coupled PPlase assay according to Materials and Methods.

hFKBP12 = target: T2, hFKBP12 (Homo sapiens, UniProt P62942); assay: protease-coupled PPIase assay, hFKBP12; assay type: biochemical
T2 construct: purchased Sigma
T2 sequence (P62942 whole entry): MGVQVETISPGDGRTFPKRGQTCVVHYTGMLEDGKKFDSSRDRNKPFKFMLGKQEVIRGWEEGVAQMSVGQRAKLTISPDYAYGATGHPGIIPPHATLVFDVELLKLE
Protocol: as §1

glioblastoma cells = conditions: Misra et al. 1982; cited from earlier work
[1] = Day 7 (before dosing), group 0.34 mg/kg ip Days 16-20
[2] = Day 12 (before dosing), group 0.34 mg/kg ip Days 16-20
[3] = Day 18, 0.34 mg/kg ip Days 16-20
[4] = Day 25, 0.34 mg/kg ip Days 16-20
[5] = Day 32, 0.34 mg/kg ip Days 16-20
[6] = Day 14 (before dosing), group 0.34 mg/kg ip Days 16-20
[7] = Day 21, 0.34 mg/kg ip Days 16-20
[8] = Day 28, 0.34 mg/kg ip Days 16-20

O=C1c2c(O)ccc(O)c2C(=O)c2c(NCCNCCO)ccc(NCCNCCO)c21 [Mitox, reference compound]
mice that died after 32 days (0.34 mg/kg ip Days 16-20, ten mice per group): None | Mean Mouse Weight [1]: 27.98 g | Mean Mouse Weight [2]: 28.32 g | Mean Mouse Weight [3]: 27.39 g | Mean Mouse Weight [4]: 27.38 g | Mean Mouse Weight [5]: 28.04 g | Mean Mouse Weight (Day −6 (before dosing), group 0.34 mg/kg ip Days 16-20): 26.36 g | Tumor Volume (DU-145 prostate tumor; [1]): 0.02 cm^3 | Tumor Volume (DU-145 prostate tumor; [2]): 0.05 cm^3 | Tumor Volume (DU-145 prostate tumor; [6]): 0.09 cm^3 | Tumor Volume (DU-145 prostate tumor; [3]): 0.19 cm^3 | Tumor Volume (DU-145 prostate tumor; [7]): 0.22 cm^3 | Tumor Volume (DU-145 prostate tumor; [4]): 0.37 cm^3 | Tumor Volume (DU-145 prostate tumor; [8]): 0.53 cm^3 | Tumor Volume (DU-145 prostate tumor; [5]): 0.72 cm^3

C/C=C/C=C/c1cc2cc3c(c(O)c2c(=O)[nH]1)C1(CC3)C(=O)c2c(O)c3c(c(O)c2C1=O)C(=O)C(OC)=CC3=O (stereo not drawn) [fredericamycin A]
IC50 (hCyp18): 5100 ± 2000 nM | Ki (hPin1; 6.0 nM Pin1, 5 min pre-incubation, 35 mM HEPES pH 7.8, substrate Ac-Ala-Ala-Ser(P)-Pro-Arg-pNA, competitive tight-binding fit, read-out: Ki value for inhibition of the PPIase activity of hPin1): 820 ± 608 nM | time dependency of inhibition of hPin1 PPIase activity (hPin1; 6.0 nM hPin1, 1 μM inhibitor, 0-30 min incubation): no time dependency of inhibition within 30 min | remaining hPin1 PPIase activity (hPin1; 209 nM hPin1, 0.16 mM inhibitor, before micro-concentration): 23% | hPin1 reactivation after micro-concentration through semi-permeable membrane (reversibility) (hPin1; 209 nM hPin1, 0.16 mM inhibitor, buffer replaced 3 times, compared to inhibitor-free enzyme control): 97.5% | preference for the parvulin hPin1 over the other tested PPIases (hPin1; hPin1 versus hCyp18 and hFKBP12): 6- to 7 fold | IC50 (hPin1; protease-coupled PPIase assay): 890 ± 50 nM | death of mice (0.67 mg/kg ip from Day 16, ten mice per group): All of the mice receiving 0.67 mg/kg of Fred A died by about Day 17 | number of mice that lived until Day 32 (mouse, in vivo): 2 | IC50 (hFKBP12): 6200 ± 1700 nM | anti-tumor activity against glioblastoma cells (glioblastoma cells): comparable to 1,3-bis(2-chloroethyl)-1-nitrosourea (BCNU) | Tumor Volume (DU-145 prostate tumor; [1]): 0.02 cm^3 | Tumor Volume (DU-145 prostate tumor; Day 7 (before dosing), group 0.67 mg/kg ip Days 16-20): 0.04 cm^3 | Tumor Volume (DU-145 prostate tumor; [2]): 0.05 cm^3 | Tumor Volume (DU-145 prostate tumor; Day 12 (before dosing), group 0.67 mg/kg ip Days 16-20): 0.04 cm^3 | Tumor Volume (DU-145 prostate tumor; [6]): 0.05 cm^3 | Tumor Volume (DU-145 prostate tumor; Day 14 (before dosing), group 0.67 mg/kg ip Days 16-20): 0.07 cm^3 | Tumor Volume (DU-145 prostate tumor; [3]): 0.03 cm^3 | Tumor Volume (DU-145 prostate tumor; Day 18, 0.67 mg/kg ip Days 16-20): 0.05 cm^3 | Tumor Volume (DU-145 prostate tumor; [7]): 0.11 cm^3 | Tumor Volume (DU-145 prostate tumor; [4]): 0.11 cm^3 | Tumor Volume (DU-145 prostate tumor; [8]): 0.22 cm^3 | Tumor Volume (DU-145 prostate tumor; [5]): 0.35 cm^3 | reduction of mean tumor volume as compared to the DMSO or Mitox controls (DU-145 prostate tumor; FIG. 4, DU-145 tumor bearing scid mice, ip Days 16-20): 50%
